# Test results published in patent publication US12286632B2, “Rationally-designed synthetic peptide shuttle agents for delivering polypeptide cargos from an extracellular space to the cytosol and/or nucleus of a target eukaryotic cell, uses thereof, methods and kits relating to same” (Feldan Bio Inc., priority 2016, dated 2025).
# Ends that are not written are not given here. Peptide text beside a SMILES is read from it.
# Columns and labels:
# in vitro [1] = details: human, HeLa cells
# HeLa cells [2] = assay: Plasmid DNA (pEGFP-C1) transfection by peptides (% cells with GFP signal, cell viability); details: DNA transfection in HeLa cells using peptides; pEGFP-C1 plasmid
# in vitro [3] = details: human, HeLa cells; for viability: Cell viability (%) (±St Dev.; n = 3)
# HeLa cells [4] = assay: GFP-NLS protein transduction assay (flow cytometry: Pos cells %, viability %, relative fluorescence intensity; microscopy); details: HeLa cells
# HeLa cells [5] = details: human, 10 s, 50 µM
# in vitro [6] = details: human, HCC-78 cells
# in vitro [7] = details: human, NCI-H196 cells
# THP-1 cells = assay: HOXB4-WT transduction: target gene mRNA by real-time PCR (Fold over control) and total RNA (ng/μL) as marker for cell viability; assay type: cell-based, human; details: THP-1, serum
# Method: Control and treated cells are transferred to separate sterile 1.5-mL tubes and centrifuged for 5 minutes at 300g. The cell pellets are resuspended in appropriate buffer to lyse the cells. RNAase-free 70% ethanol is then added followed by mixing by pipetting. The lysates are transferred to an RNeasy™ Mini spin column and centrifuged 30 seconds at 13000 RPM. After several washes with appropriate buffers and centrifugation steps, the eluates are collected in sterile 1.5-mL tubes on ice, and the RNA quantity in each tube is then quantified with a spectrophotometer. For DNase treatment, 2 μg of RNA is diluted in 15 μL of RNase-free water. 1.75 μL of 10X DNase buffer and 0.75 μL of DNase is then added, followed by incubation at 37° C. for 15 minutes. For reverse transcriptase treatment, 0.88 μL of EDTA […] is added, followed by incubation at 75° C. for 5 minutes. In a PCR tube, […] of DNase-treated RNA is mixed with 4 μL of iScript™ Reverse transcription Supermix (5X) and […] of nuclease-free water. The mix is incubated in a PCR machine with the following program: 5 min at 25° C., 30 min at 42° C. and 5 min at 85° C. Newly synthesized cDNA is transferred in sterile 1.5-mL tubes and diluted in 2 μL of nuclease-free water. 18 μL per well of a qPCR machine (CFX-96™) mix is then added in a PCR plate for analysis.
# Briefly, THP-1 cells were plated at 30 000 cells/well one day before transduction. HOXB4-WT recombinant protein ([…]; Example 14.1) was co-incubated with different concentrations of His-CM18-PTD4 ([…]) and then exposed to THP-1 cells for 2.5 hours in the presence of serum. The cells were subjected to real time-PCR analysis as described in Example 14.2 to measure the mRNA levels of a target gene as a marker for HOXB4 activity, which was then normalized to the target gene mRNA levels detected in the negative control cells (no treatment), to obtain a “Fold over control” value. Total RNA levels (ng/μL) were also measured as a marker for cell viability.
# Briefly, THP-1 cells were plated at 30 000 cells/well one day before the first time course experiment. HOXB4-WT recombinant protein (1.5 μM; Example 14.1) was co-incubated with His-CM18-PTD4 (0.8 μM) and then exposed to THP-1 cells for 0, 2.5, 4, 24 or 48 hours in presence of serum. The cells were subjected to real time-PCR analysis as described in Example 14.2 to measure mRNA levels of a target gene as a marker for HOXB4 activity, which was then normalized to the target gene mRNA levels detected in the negative control cells (no treatment), to obtain a “Fold over control” value. Total RNA levels (ng/μL) were also measured as a marker for cell viability.
# Briefly, THP-1 cells were plated at 30 000 cells/well one day before the first time course experiment. HOXB4-WT recombinant protein (0.3 μM; Example 14.1) was co-incubated with His-CM18-PTD4 (0.8 μM) and then exposed to THP-1 cells for 0, 0.5, 1, 2, 2.5, 3 or 4 hours in presence of serum. The cells were subjected to real time-PCR analysis as described in Example 14.2 to measure mRNA levels of a target gene as a marker for HOXB4 activity, which was then normalized to target gene mRNA levels detected in the negative control cells (no treatment), to obtain a “Fold over control” value. Total RNA levels (ng/μL) were also measured as a marker for cell viability.
# Briefly, THP-1 cells were plated at 30 000 cells/well one day before the first time course experiment. HOXB4-WT recombinant protein (1.5 μM; Example 14.1) co-incubated with the shuttle agents His-CM18-PTD4, TAT-KALA, EB1-PTD4, His-C(LLKK)3C-PTD4 and His-CM18-PTD4-His at 0.8 μM, and then exposed to THP-1 cells for 2.5 hours in presence of serum. The cells were subjected to real time-PCR analysis as described in Example 14.2 to measure mRNA levels of a target gene as a marker for HOXB4 activity, which was then normalized to target gene mRNA levels detected in the negative control cells (no treatment), to obtain a “Fold over control” value. […]
# [8] = Cell viability (%) (±St. Dev.; n = 3)
molecule,measurement,setting,value
CC(C)C[C@H](NC(=O)[C@H](CC(C)C)NC(=O)[C@H](CCCCN)NC(=O)[C@H](CCCCN)NC(=O)[C@H](CC(C)C)NC(=O)[C@H](CC(C)C)NC(=O)[C@H](CCCCN)NC(=O)[C@H](CCCCN)NC(=O)[C@H](CC(C)C)NC(=O)[C@H](CC(C)C)NC(=O)[C@@H](N)CS)C(=O)N[C@@H](CCCCN)C(=O)N[C@@H](CCCCN)C(=O)N[C@@H](CS)C(=O)O [C(LLKK)3] (H-CLLKKLLKKLLKKC-OH; N-terminus and C-terminus assumed),viability,in vitro [1],81.7 ± 2.34%
same,Mean % cells with GFP signal (±St. Dev.; n = 3),HeLa cells [2],0.00 ± 0.00%
CC[C@H](C)[C@H](NC(=O)[C@H](CCCCN)NC(=O)[C@H](CCCCN)NC(=O)[C@H](Cc1ccccc1)NC(=O)[C@H](CC(C)C)NC(=O)[C@H](CCCCN)NC(=O)[C@H](Cc1c[nH]c2ccccc12)NC(=O)[C@@H](N)CCCCN)C(=O)NCC(=O)N[C@@H](C)C(=O)N[C@H](C(=O)N[C@@H](CC(C)C)C(=O)N[C@@H](CCCCN)C(=O)N[C@H](C(=O)N[C@@H](CC(C)C)C(=O)N[C@H](C(=O)N[C@H](C(=O)NCC(=O)N[C@@H](CCCNC(=N)N)C(=O)N[C@@H](CCC(N)=O)C(=O)N[C@H](C(=O)N[C@@H](CCCCN)C(=O)N[C@H](C(=O)N[C@@H](Cc1c[nH]c2ccccc12)C(=O)N[C@@H](Cc1ccccc1)C(=O)N[C@@H](CCC(N)=O)C(=O)N[C@@H](CC(N)=O)C(=O)N[C@@H](CCCNC(=N)N)C(=O)N[C@@H](CCCNC(=N)N)C(=O)N[C@@H](CCSC)C(=O)N[C@@H](CCCCN)C(=O)N[C@@H](Cc1c[nH]c2ccccc12)C(=O)N[C@@H](CCCCN)C(=O)N[C@@H](CCCCN)C(=O)N[C@@H](CS)C(=O)O)[C@@H](C)CC)[C@@H](C)CC)[C@@H](C)O)[C@@H](C)O)C(C)C)C(C)C [CM18-Pen-Cys],viability,in vitro [1],16.1 ± 0.12%
same,Mean % cells with GFP signal (±St. Dev.; n = 3),HeLa cells [2],0.01 ± 0.0%
CC(C)C[C@H](NC(=O)[C@H](CCCNC(=N)N)NC(=O)[C@H](CCC(=O)O)NC(=O)CNC(=O)[C@H](CCC(N)=O)NC(=O)[C@@H](NC(=O)[C@H](Cc1c[nH]c2ccccc12)NC(=O)[C@H](CC(C)C)NC(=O)[C@H](CCCCN)NC(=O)[C@H](CC(C)C)NC(=O)[C@H](CC(C)C)NC(=O)[C@H](CCCNC(=N)N)NC(=O)[C@H](CO)NC(=O)[C@H](Cc1c[nH]c2ccccc12)NC(=O)[C@H](CC(C)C)NC(=O)[C@H](CS)NC(=O)[C@H](CC(C)C)NC(=O)[C@H](CC(C)C)NC(=O)[C@H](Cc1c[nH]cn1)NC(=O)[C@H](Cc1c[nH]cn1)NC(=O)[C@H](Cc1c[nH]cn1)NC(=O)[C@H](Cc1c[nH]cn1)NC(=O)[C@H](Cc1c[nH]cn1)NC(=O)[C@@H](N)Cc1c[nH]cn1)[C@@H](C)O)C(=O)N[C@@H](CCCCN)C(=O)N[C@@H](C)C(=O)N[C@@H](CCCCN)C(=O)N[C@@H](CS)C(=O)N[C@@H](C)C(=O)N[C@@H](CCCCN)C(=O)N[C@@H](C)C(=O)N[C@@H](CS)C(=O)N[C@@H](CCC(=O)O)C(=O)N[C@@H](CCCNC(=N)N)C(=O)O [FSD24] (H-HHHHHHLLCLWSRLLKLWTQGERLKAKCAKACER-OH; N-terminus and C-terminus assumed),viability,in vitro [3],75.3 ± 3.93%
same,viability,in vitro [1],96.5 ± 3.02%
same,Mean % cells with GFP signal (±St. Dev.; n = 3),HeLa cells [2],0.20 ± 0.00%
same,Mean % cells with GFP signal (±St. Dev.; n = 3),"HeLa cells [4]; Table B2, GFP-NLS cargo",37.48 ± 4.08%
GLFEALLELLESLWELLLEAYARAAARQARA [JST-PTD4],viability,in vitro [1],70.2 ± 5.39%
same,Cell viability (%) (±St. Dev.; n = 3),HeLa cells [5],98.9 ± 0.57%
HHHHHHCMKVVWEIVLAKYKGGGGRARAASRRARA [FSD42],"viability at 1 min, 10 µM",in vitro [3]; [8],97.3 ± 1.07%
same,viability,in vitro [1],96.7 ± 1.96%
same,Mean % cells with GFP signal (±St. Dev.; n = 3),HeLa cells [2],0.12 ± 0.02%
same,Mean % cells with GFP signal (±St. Dev.; n = 3),"HeLa cells [4]; Table C3, GFP-NLS 10 μM, 10 μM of the peptide, 1 min",1.59 ± 0.39%
HHHHHHHHHKWKLFKKIGAVLKVLTTGYARAAARQARA [Peptide 9His-CM18-PTD4],viability,in vitro [1],98.72 ± 0.93%
same,Mean % cells with GFP signal (±St. Dev.; n = 3),HeLa cells [2],0.04 ± 0.01%
HHHHHHLLKLWSRLLKLWTQGRRLKAKRAKAHHHHHH [FSD5],viability,in vitro [3],86 ± 7.45%
same,"viability at 1 min, 8 µM",in vitro [3]; [8],85 ± 6.27%
same,"viability at 1 min, 10 µM",in vitro [3]; [8],76 ± 7.45%
same,"viability at 2 min, 5 µM",in vitro [3]; [8],35.5 ± 4.82%
same,viability,in vitro [1],93.2 ± 8.63%
same,"viability at 1 min, 8 µM",in vitro [6],87.7 ± 6.52%
same,"viability at 1 min, 10 µM",in vitro [6],15.9 ± 0.83%
same,"viability at 2 min, 5 µM",in vitro [6],75.3 ± 6.18%
same,"viability at 1 min, 8 µM",in vitro [7],69.9 ± 6.38%
same,"viability at 1 min, 10 µM",in vitro [7],47.2 ± 3.54%
same,"viability at 2 min, 5 µM",in vitro [7],77.2 ± 6.17%
HOXB4-WT,Fold over control (mean ± St. Dev),"THP-1 cells; Table 14.1, 2.5 hours, shuttle 0 μM, HOXB4-WT 1.5 μM (alone)",4.3 ± 0.1
same,Fold over control (mean ± St. Dev),"THP-1 cells; Table 14.2, shuttle 0 μM, HOXB4-WT 1.5 μM (alone), exposure 2.5 h",3.4 ± 0.3
same,Fold over control (mean ± St. Dev),"THP-1 cells; Table 14.3, shuttle 0.8 μM, HOXB4-WT 0 μM (alone), exposure 2.5 h",1 ± 0.14
same,Fold over control (mean ± St. Dev),"THP-1 cells; Table 14.4, shuttle 0.8 μM, HOXB4-WT 0 μM (alone), exposure 2.5 h",1 ± 0.11
